Experimental data: publication PMC10762035, “Molecular basis of human trace amine-associated receptor 1 activation” (Nature Communications, 2024)
Residue numbers refer to the chain shown, from its start. Values joined by “and” are separate entries in the source; they are usually repeats but may differ in a detail not shown here. Equal values may be shown once. Read-outs that look alike come from different tables or passages of the source.

Assays:
Format in all cases: cell-based
[1] = biological target: T1, hTA1 S107C (Homo sapiens, UniProt Q96RJ0, S107C); experiment: GloSensor cAMP accumulation assay, S107C mutant; conditions: for ΔEmax values (each mutant value - WT average): S107C mutant minus WT average;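 for all read-outs here: cells transiently co-expressing receptor and GloSensor biosensor, luminescence read after 30 min agonist exposure at room temperature, concentration-response fitted by nonlinear regression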
T1 construct: expressed in transfected cells; host or cells: HEK293T
T1 sequence (Q96RJ0 1-339 S107C): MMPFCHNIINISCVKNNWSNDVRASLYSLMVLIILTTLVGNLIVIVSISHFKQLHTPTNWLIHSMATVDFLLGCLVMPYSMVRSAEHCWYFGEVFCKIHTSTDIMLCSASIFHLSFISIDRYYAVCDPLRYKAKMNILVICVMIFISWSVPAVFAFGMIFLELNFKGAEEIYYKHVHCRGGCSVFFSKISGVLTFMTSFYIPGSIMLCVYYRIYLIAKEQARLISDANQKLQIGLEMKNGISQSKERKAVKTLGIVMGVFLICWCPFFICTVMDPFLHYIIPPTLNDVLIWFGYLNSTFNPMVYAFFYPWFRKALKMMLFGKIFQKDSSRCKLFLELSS

[2] = biological target: T2, hTA1 C5S (Homo sapiens, UniProt Q96RJ0, C5S); experiment: GloSensor cAMP accumulation assay, C5S mutant; conditions: for C5S - Normalized Luminescence Counts (N=2): log[Compound], single wells
T2 construct: expressed in transfected cells; host or cells: HEK293T
T2 sequence (Q96RJ0 1-339 C5S): T1 sequence (Q96RJ0 1-339 S107C) with C5S, C107S

[3] = biological target: T3, hTA1 C13S (Homo sapiens, UniProt Q96RJ0, C13S); experiment: GloSensor cAMP accumulation assay, C13S mutant; conditions: for C13S - Normalized Luminescence Counts (N=2): log[Compound], single wells
T3 construct: expressed in transfected cells; host or cells: HEK293T
T3 sequence (Q96RJ0 1-339 C13S): T1 sequence (Q96RJ0 1-339 S107C) with C13S, C107S

[4] = biological target: T4, hTA1 I290N (Homo sapiens, UniProt Q96RJ0, I290N); experiment: GloSensor cAMP accumulation assay, I290N mutant; conditions: for cAMP accumulation response, single replicate values (source data, Supplementary Figure 5): hTA1 I290N (N=2), log[Compound], M = -5;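 for all read-outs here: cells transiently co-expressing hTA1 and the GloSensor cAMP biosensor, luminescence read 30 min after compound addition at room temperature, efficacy scaled to the maximal β-PEA response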
T4 construct: expressed in transfected cells; host or cells: HEK293T
T4 sequence (Q96RJ0 1-339 I290N): T1 sequence (Q96RJ0 1-339 S107C) with C107S, I290N

[5] = S107C mutant, β-PEA = 100, each line an independent experiment, 3 replicates
[6] = S107C, n=2, read-out: Span ± SEM (Emax normalized to β-PEA)
[7] = C5S, n=2, read-out: Span ± SEM (Emax normalized to β-PEA)
[8] = hTA1 C5S, β-PEA = 100, mean of 3 replicates, one line per independent experiment
[9] = hTA1 C5S, β-PEA = 100, mean of 3 replicates, one line per independent experiment, read-out: Emax values, Mean
[10] = C13S, Mean of fit per experiment
[11] = C13S, Mean of fit per experiment, read-out: Emax values
[12] = C13S, n=2, read-out: Span ± SEM (Emax normalized to β-PEA)
[13] = I290N, n=2, read-out: Span ± SEM (Emax normalized to β-PEA)
[14] = hTA1 I290N mutant, β-PEA set to 100, each grid row a separate experiment, 3 replicates
[15] = hTA1 I290N mutant, β-PEA set to 100, each grid row a separate experiment, 3 replicates, read-out: Emax values (Mean)

| SMILES | ΔEmax values (each mutant value - WT average) [1] | Emax values, Mean [1, 5] | Emax [1, 6] | Emax [2, 7] | ΔpEC50 values (each mutant value - WT average), Mean ([2]; hTA1 C5S minus WT average) | Emax values, Mean [2, 8] | Emax [2, 9] | C5S - Normalized Luminescence Counts (N=2) ([2]; M = -5) | C5S - Normalized Luminescence Counts (N=2) ([2]; M = -5.522) | C5S - Normalized Luminescence Counts (N=2) ([2]; M = -6) | C5S - Normalized Luminescence Counts (N=2) ([2]; M = -6.522) | C5S - Normalized Luminescence Counts (N=2) ([2]; M = -7) | ΔpEC50 values (each mutant value - WT average) ([3]; C13S) | Emax values [3, 10] | Emax [3, 11] | Emax [3, 12] | C13S - Normalized Luminescence Counts (N=2) ([3]; M = -5) | Emax [4, 13] | cAMP accumulation response, single replicate values (source data, Supplementary Figure 5) [4] | Emax values, Mean [4, 14] | other results |
| --- | --- | --- | --- | --- | --- | --- | --- | --- | --- | --- | --- | --- | --- | --- | --- | --- | --- | --- | --- | --- | --- |
| NCCc1ccc(O)cc1 [TYR, tyramine] | 8.654 | 107.638 and 133.074 | 120% | 97.4 ± 4.98% | 0.08447 and -0.09146 | 92.4348 | 102% | 102.862 and 111.578 and 98.7984 and 85.7838 and 116.923 and 74.2532 | 86.6512 and 89.3832 and 85.861 and 68.3844 and 81.1578 and 69.9034 | 78.4779 and 69.4918 and 73.443 and 62.6536 and 54.2301 and 61.4799 | 44.8815 and 51.1131 and 50.1196 and 36.2784 and 34.207 and 33.0332 | 29.0315 and 24.8319 and 26.4576 and 17.7742 and 18.5337 and 19.2242 | -0.3688 and -0.3329 | 110.911 | 93.7% | 102 ± 8.61% | 78.8304 and 97.2912 and 83.436 and 97.1609 and 112.12 and 105.729 | 99.42 ± 0.19% | 84.4195 and 103.709 and 90.7072 and 91.6949 | 99.2249 | EC50 ([1]; S107C, n=2, read-out: EC50): 186 nM; EC50 ([2]; C5S, n=2, read-out: EC50): 418 nM; EC50 ([2]; hTA1 C5S, mean of 3 replicates, one line per independent experiment, read-out: pEC50 values, Mean (converted)): 342 nM and 512 nM; C5S - Normalized Luminescence Counts (N=2) ([2]; M = -7.522): 7.6273 and 8.959 and 8.553 and 6.382 and 5.3461 and 5.829; EC50 ([3]; C13S, n=2, read-out: EC50): 931 nM; EC50 ([3]; hTA1 C13S, mean of 3 replicates, one line per independent experiment, read-out: pEC50 values, Mean (converted)): 970 nM and 893 nM; C13S - Normalized Luminescence Counts (N=2) ([3]; M = -5.522): 59.6843 and 75.6711 and 68.2867 and 72.4375 and 86.5575 and 83.5764; C13S - Normalized Luminescence Counts (N=2) ([3]; M = -6): 42.8222 and 56.3728 and 40.1958 and 58.5139 and 61.7985 and 54.8367; C13S - Normalized Luminescence Counts (N=2) ([3]; M = -6.522): 23.1813 and 24.6658 and 21.4304 and 27.8641 and 32.7195 and 30.988; EC50 ([4]; I290N, n=2, read-out: EC50): 492 nM; ΔpEC50 values (each mutant value - WT average), Mean ([4]; hTA1 I290N mutant minus WT average): -0.07565 and -0.07195; EC50 ([4]; hTA1 I290N mutant, Figure 3B source data, each grid row a separate experiment, 3 replicates, read-out: pEC50 values (Mean) (converted)): 494 nM and 490 nM; Emax [4, 15]: 99.6% |
| CCc1[nH]nc(C(=O)Nc2ccc([C@H]3CNCCO3)cc2)c1C [ralmitaront] | 1.2358 | 57.0471 | 49.2 ± 7.85% | 53 ± 3.33% | -0.2888 and -0.07449 | 49.6851 | 56.4% | 56.5093 and 57.6833 and 45.4685 and 47.3256 and 58.0276 and 41.5948 | 55.6739 and 48.0198 and 44.2267 and 42.3543 and 55.8182 and 41.3187 | 54.1385 and 48.494 and 48.3811 and 37.8664 and 46.5661 and 38.2116 | 36.3243 and 27.5639 and 26.277 and 37.3831 and 32.0666 and 36.4855 | 17.0199 and 14.6491 and 16.7715 and 16.6005 and 20.1908 and 19.0861 | -0.1563 and -0.05083 | 28.9629 | 23.8% | 26.4 ± 2.6% | 24.7419 and 34.2578 and 19.4511 and 28.8102 and 35.1294 and 22.0805 | 43.6 ± 5.35% | 44.9736 and 36.855 and 39.1073 and 50.4588 | 38.2871 | Emax ([1]; S107C mutant, β-PEA = 100, each line an independent experiment, 3 replicates, read-out: Emax values (Mean)): 41.3%; ΔEmax values (each mutant value - WT average), Mean ([2]; hTA1 C5S minus WT average): 16.2371 and 9.571; Emax [4, 15]: 49% |
